Results as given in patent EP4509497A1, “METHOD FOR PRODUCING ACETYLSALICYLIC ACID NICOTINAMIDE COCRYSTALS AND ACETYLSALICYLIC ACID NICOTINAMIDE COCRYSTALS WITH IMPROVED SOLUBILITY” (Ruhr-Universität Bochum, priority 2023, dated 2025).
≈ marks a conversion by molar mass, not a printed value.

Assay: Solubility determination (gravimetric, saturated aqueous samples)
Type: physicochemical
Description: Es wurden 15 mL gesättigter wässriger Proben mit Niederschlag in 20 mL-Fläschchen mit dem Acetylsalicylsäure-Nicotinsäureamid-Co-Kristall (1:1), ASS und NIC angesetzt. Die Proben wurden bei Raumtemperatur mit einem Magnetrührer homogenisiert. Nach 1 h und 2 h werden von jeder Probe 4-mal ca. 1 mL Lösung entnommen (4-fach Bestimmung) und durch ein Vorspritzfilter in ein leeres 4 mL Fläschchen überführt. Die Fläschchen werden dann bis zur Verdampfung des Lösemittels offen stehengelassen. Die Fläschchen wurden leer, mit der gesättigten Lösung und nach dem Verdampfen gewogen. Die Löslichkeit in Masseprozent ergibt sich über die Differenz aus Gewicht nach dem Verdampfen und dem Leegewicht.

Compound	solubility thermodynamic at 1 h (water) [µg/mL]	solubility thermodynamic at 2 h (water) [µg/mL]	ASS-Löslichkeit gesteigert um einen Faktor (ASS in co-crystal (ASS:NA 1:1) versus pure ASS, Fig. 7, after 1 h)	Löslichkeit Nach 1 h (water, 1 h)	Löslichkeit Nach 1 h (ASS im Co-Kristall) (water, 1 h)	Löslichkeit Nach 2 h (water, 2 h)	Löslichkeit Nach 2 h (ASS im Co-Kristall) (water, 2 h)
CC(=O)Oc1ccccc1C(=O)O [Acetylsalicylsäure, 2-Acetoxybenzoesäure, reference compound]	4140 (≈ 23 mM)	4260 (≈ 23.6 mM)					
Acetylsalicylsäure-Nicotinsäureamid-Co-Kristall			ca. 2,5	1,768 ω %	1,054 ω %	1,777 ω %	1,059 ω %
